Data set [1] has as its system TBA reactive substance (index of the peroxide of lipid), TNB-induced colitis. The data set can be described thus: TBA reactive substance in intestinal mucous membrane of TNB-induced colitis. It counts as in vivo, Male Wistar rats. As to conditions: intraabdominal, daily, one week, normal 0.13, control 0.53. The source says: (§1) The trinitrobenzenesulfonic acid (TNB)-induced colitis is said to resemble the inflammatory bowel disease of man, particularly Crohn's disease. In this model, the myeloperoxidase (MPO) activity, i.e. an index of the humectation of neutrophil into the tissue, prominently increases in the intestinal mucous membrane from the initial stage of the TNB administration onward and thereafter induces full-thickness inflammations inclusive of edama, erosion, and necrosis of the intestinal duct. In this lesion of the mucous membrane, the thiobarbituraic acid (TAB) reaction substance, i.e. an index of the peroxide of lipid, also increases and the antioxidizing substances such as the SOD activity, the glutathionperoxidase (GPx) activity, and α-tocopherol conversely decrease. By the use of this model, the chromanol glucoside was tested for the effect thereof manifested in repressing the lesion of the TNB-induced colitis.
(§2) As the chromanol glucoside, the 2-(α-D-glucopyranosyl) methyl-2,5,7,8-tetramethylchroman-6-ol (TMG) represented by the following formula (3) produced by the method described in Example 1 of JP-A-07-118,287 was thoroughly dissolved in water in varying concentrations of 20 mg/ml, 2 mg/ml, and 0.2 mg/ml to obtain injection grade preparations. [drawing 5]
Male Wistar rats 7 weeks old weighing 190-210 g were divided into groups of six heads. To the rats, after 48 hours' fasting, the TBN dissolved in 50% ethanol in a ratio of 120 mg/ml was intestinally administered at a dose of 1 ml/kg. […]
(§3) Of the items of rating mentioned above, the damage score, the TBA reactive substance, and the MPO activity were measured by the following methods.
The determination was performed in accordance with the method proposed by Ohkawa et al. (H. Ohkawa, et al.: Anal. Biochem., 95 (1979) 351-358). […] The supernatant resulting from the centrifugation was measured for absorbance at a wavelength of 535 nm with a spectrophotometer. […] Based on this calibration curve, the TBA reactive substance of a sample was determined.

Data set [2] concerns TNB-induced colitis. The data set can be described thus: Effect of repressing lesion in TNB-induced colitis (body weight increase, damage score, wet weight of intestine). It counts as in vivo, Male Wistar rats. As to conditions: intraabdominal, daily, one week; for Wet weight: intestine, normal 0.58, control 2.6; for Damage score: lesion 0-5 plus adhesion 0-3, normal 0, control 7.25; for Amount of increase in body weight: normal group 93.5, control group 17.5.
Excerpt: as §1, §2
Male Wistar rats 7 weeks old weighing 190-210 g were divided into groups of six heads. To the rats, after 48 hours' fasting, the TBN dissolved in 50% ethanol in a ratio of 120 mg/ml was intestinally administered at a dose of 1 ml/kg. Thereafter, the TMG preparations obtained as described above were administered to the rats intraabdominally at a dose of […] per head daily. After one week of the administration, the rats were rated for increase of body weight, damage score of the intestine in a 8 cm region on the side of the anus, wet weight, TBA reactive substance, and MPO activity.
as §3
The lesion on the intestinal mucous membrane was classified on the six-point (0-5) scale in accordance with the Morris Classification (G. P. Morris, et al.,: Gastoenterology, 96 (1989) 750-803) and the degree of adhesion to the intestinal mucous membrane was classified on the four-point (0-3) scale (0: absence of adhesion, 1: presence of incontinuous adhesion, 2: presence of continuous adhesion, and 3: presence of clots). The sums of these points were used for rating.

Data set [3] deals with ICR type mice. Kind of data set: Test for acute toxicity. The note with it: oral, 500 mg/kg in 5% gum arabic solution, one week observation. It counts as in vivo. Here is the method:
The preventive and curative agent of this invention for inflammatory bowel diseases was tested for acute toxicity in an effort to confirm the safety thereof. ICR type mice 4-5 weeks old were divided into groups of three heads. The same TMG as mentioned above was suspended as a chromanol glucoside in 5% gum arabic solution. The resultant suspension was orally administered to the rats in a dosage of 500 mg/kg as reduced to TMG, with the rats kept under observation for one week. In this case, 0.3 ml of a 5% gum arabic solution was administered to a control group.

Data set [4] deals with myeloperoxidase (MPO), TNB-induced colitis. Kind of data set: MPO activity in intestinal mucous membrane of TNB-induced colitis. It counts as in vivo, Male Wistar rats. The note with it: intraabdominal, daily, one week, normal 0.19, control 0.74.
Excerpt: as §1, §2
Male Wistar rats 7 weeks old weighing 190-210 g were divided into groups of six heads. […]
as §3
The determination was carried out in accordance with the o-dianisidine-hydrogen peroxide reaction (J. E. Krrawisz, et al.,: Gastroenterology, 87 (1984) 1344-135). […] In 950 μl of a reaction solution prepared by dissolving 16.7 mg of o-dianidine dihydrochloride in 50 mM of potassium phosphate having a pH of 6.0 and further mixing the resulting solution with 100 μl of an aqueous 0.5% hydrogen peroxide solution, 50 μl of the sample was placed and measured for change in absorbance at a wavelength of 460 nm with a spectrophotometer. […]

For data set [5] the following is noted: cited from earlier work; for water-solubility: prior-art compounds.
Data set [6] in a line: Water-solubility. It counts as physicochemical. The note with it: ratio to that of Trolox.

As for `Cc1c(C)c2c(c(C)c1O)CCC(C)(CO[C@H]1O[C@H](CO)[C@@H](O)[C@H](O)[C@H]1O)O2` (some centres unmarked) [TMG], the TAB reactive substance in data set [1] (TMG 0.2 mg/ml) is listed as 0.31 ng/mg protein; in data set [1] (TMG 2 mg/ml), 0.38 ng/mg protein; in data set [1] (TMG 20 mg/ml) it was 0.35 ng/mg protein. The results for the Wet weight in data set [2] (TMG 0.2 mg/ml), in data set [2] (TMG 2 mg/ml) and in data set [2] (TMG 20 mg/ml) were 1.06 g/8 cm, 1.15 g/8 cm and 0.86 g/8 cm, respectively. In addition, the Damage score in data set [2] (TMG 0.2 mg/ml) is listed as 4.75; in data set [2] (TMG 2 mg/ml), 3.75; in data set [2] (TMG 20 mg/ml), 4. Moreover, the “Amount of increase in body weight” value in data set [2] (TMG 0.2 mg/ml) is recorded as 63 g/one week; in data set [2] (TMG 2 mg/ml) it was 64 g/one week; in data set [2] (TMG 20 mg/ml) it was 57 g/one week. The “death of mouse in acute toxicity test” value in data set [3] is on record as “No case of death”. Also, the MPO activity in data set [4] (TMG 0.2 mg/ml) came to 0.52 U/l/mg protein; in data set [4] (TMG 2 mg/ml), 0.64 U/l/mg protein; in data set [4] (TMG 20 mg/ml), 0.48 U/l/mg protein.
With `Cc1c(C)c2c(c(C)c1O)CCC(C)(CCCC(C)CCCC(C)CCCC(C)C)O2` (stereo not drawn) [vitamin E, α-tocopherol], the “water-solubility (in words)” value in data set [5] (prior-art compound) is given as “not soluble in water”.
Turning to `Cc1c(C)c2c(c(C)c1O)CCC(C)(C(=O)O)O2` (centres unmarked) [Trolox, 6-hydroxy-2,5,7,8-tetramethylchroman-2-carboxylic acid], the water-solubility result in data set [5] was “about 15 mg/100 ml”.
As for `Cc1c(C)c2c(c(C)c1O)CCC(C)(CO)O2` (centres unmarked) [TMC-2-substituted methanol, 2-hydroxymethyl-2,5,7,8-tetramethylchroman-6-ol], the water-solubility result in data set [5] is “about 100 mg/100 ml”. The “water-solubility relative to Trolox” value in data set [6] is on record as “about 6.3 times”.

Values taken from patent publication US6174864A, “Methods for the prevention or treatment of inflammatory bowel diseases” (CCI Corporation, priority 1996, dated 2001).
